In this assay the target is Human recombinant DHX9 protein (Homo sapiens (Human), UniProt Q08211). Briefly: DHX9 ATPase assay (ADP-Glo). It is filed as biochemical. To be noted: for IC50: read-out: DHX9 Biochemical Inflection Point. For orientation: In ADP-Glo the light output rises with the ADP produced.

SMILES strings stand for the structures.

Human recombinant DHX9 protein, sequence (Q08211 whole entry): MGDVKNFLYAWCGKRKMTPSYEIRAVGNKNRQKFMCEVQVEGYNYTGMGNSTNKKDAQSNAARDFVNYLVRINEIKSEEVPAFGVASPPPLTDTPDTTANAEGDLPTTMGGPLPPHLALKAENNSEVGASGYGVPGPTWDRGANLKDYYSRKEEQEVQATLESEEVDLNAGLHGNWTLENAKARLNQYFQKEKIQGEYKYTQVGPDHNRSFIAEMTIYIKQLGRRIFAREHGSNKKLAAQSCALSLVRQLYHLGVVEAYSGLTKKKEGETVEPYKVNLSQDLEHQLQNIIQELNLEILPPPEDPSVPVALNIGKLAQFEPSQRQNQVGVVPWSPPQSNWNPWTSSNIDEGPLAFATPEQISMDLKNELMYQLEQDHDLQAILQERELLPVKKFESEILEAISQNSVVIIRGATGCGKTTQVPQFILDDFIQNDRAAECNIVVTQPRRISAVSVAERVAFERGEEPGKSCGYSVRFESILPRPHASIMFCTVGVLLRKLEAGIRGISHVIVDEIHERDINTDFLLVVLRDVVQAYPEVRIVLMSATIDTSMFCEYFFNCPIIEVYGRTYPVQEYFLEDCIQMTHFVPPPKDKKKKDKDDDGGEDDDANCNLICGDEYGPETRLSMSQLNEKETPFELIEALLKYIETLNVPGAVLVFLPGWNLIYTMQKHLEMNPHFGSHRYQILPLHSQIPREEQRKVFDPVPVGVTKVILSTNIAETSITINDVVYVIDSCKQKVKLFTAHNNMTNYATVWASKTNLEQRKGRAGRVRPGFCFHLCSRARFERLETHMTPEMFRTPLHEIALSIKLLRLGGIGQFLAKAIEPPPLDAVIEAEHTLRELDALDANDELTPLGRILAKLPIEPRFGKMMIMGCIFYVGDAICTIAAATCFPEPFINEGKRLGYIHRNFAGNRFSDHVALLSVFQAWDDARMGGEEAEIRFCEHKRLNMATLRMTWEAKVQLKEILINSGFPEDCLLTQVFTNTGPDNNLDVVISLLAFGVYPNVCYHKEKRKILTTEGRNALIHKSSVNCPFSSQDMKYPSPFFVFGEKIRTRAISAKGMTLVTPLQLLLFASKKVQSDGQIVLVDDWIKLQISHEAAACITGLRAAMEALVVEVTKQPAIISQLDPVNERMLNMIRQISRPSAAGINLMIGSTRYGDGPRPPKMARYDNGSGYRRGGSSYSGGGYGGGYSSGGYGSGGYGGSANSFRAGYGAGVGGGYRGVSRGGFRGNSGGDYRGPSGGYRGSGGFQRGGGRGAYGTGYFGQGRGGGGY

As to `Cc1cccnc1-c1nc(C(=O)Nc2cc(Br)cc(NS(C)(=O)=O)c2)cn1C` [Example 96, N-(3-bromo-5-(methylsulfonamido)phenyl)-1-methyl-2-(3-methylpyridin-2-yl)-1H-imidazole-4-carboxamide], the “DHX9 Biochemical Max Inhibition” value stood at 52.8% and the IC50 worked out at 253 nM.

As for `CS(=O)(=O)Nc1cc(Br)cc(NC(=O)c2ccc3c(c2)[nH]c(=O)n3Cc2ccccc2)c1` [Example 99, 1-benzyl-N-(3-bromo-5-(methylsulfonamido)phenyl)-2-oxo-2,3-dihydro-1H-benzo[d]imidazole-5-carboxamide], the “DHX9 Biochemical Max Inhibition” value is listed as 50.9% and the IC50 worked out at 298 nM.

On to `CS(=O)(=O)Nc1cc(Cl)cc(NC(=O)c2cccc(-c3ccnc(Cl)c3)c2)c1` [Example 102, N-(3-chloro-5-(methylsulfonamido)phenyl)-3-(2-chloropyridin-4-yl)benzamide], for which the “DHX9 Biochemical Max Inhibition” value was 61.8% and the IC50 came to 762 nM.

Consider `CS(=O)(=O)Nc1cc(Br)cc(NC(=O)c2cnn(-c3ccccc3C(O)C(F)(F)F)c2)c1` (stereo not shown) [Example 103, N-(3-bromo-5-(methylsulfonamido)phenyl)-1-(2-(2,2,2-trifluoro-1-hydroxyethyl)phenyl)-1H-pyrazole-4-carboxamide], for which the “DHX9 Biochemical Max Inhibition” value came out at 49.5% and the IC50 is 452 nM.

On to `CS(=O)(=O)Nc1cc(Br)cc(NC(=O)c2cc(Cc3ccc[nH]3)cs2)c1` [Example 104, 4-((1H-pyrrol-2-yl)methyl)-N-(3-bromo-5-(methylsulfonamido)phenyl)-thiophene-2-carboxamide], for which the “DHX9 Biochemical Max Inhibition” value was determined as 68% and the IC50 was found to be 61 nM.

Turning to `CS(=O)(=O)Nc1cc(F)cc(NC(=O)c2cc(-c3cccnc3)cs2)c1` [Example 105, N-(3-fluoro-5-(methylsulfonamido)phenyl)-4-(pyridin-3-yl)thiophene-2-carboxamide], the “DHX9 Biochemical Max Inhibition” value came out at 71.7% and the IC50 is 80.3 nM.

As for `CS(=O)(=O)Nc1cc(Cl)cc(NC(=O)c2cc(-c3ccccc3O)cs2)c1` [Example 106], the “DHX9 Biochemical Max Inhibition” value turned out to be 58.7% and the IC50 is 78 nM.

In the case of `CS(=O)(=O)Nc1cc(Cl)cc(NC(=O)c2cc(-c3cccc(F)c3)cs2)c1` [Example 108], the “DHX9 Biochemical Max Inhibition” value is 59.8% and the IC50 was 210 nM.

As to `Cn1cc(C(=O)Nc2cc(Cl)cc(NS(C)(=O)=O)c2)cc1-c1ccccc1` [Example 109], the “DHX9 Biochemical Max Inhibition” value is 57.2% and the IC50 was determined as 17.6 nM.

As for `CCS(=O)(=O)Nc1cc(Cl)cc(NC(=O)c2cc(-c3cccnc3)cs2)c1` [Example 110], the “DHX9 Biochemical Max Inhibition” value is given as 53.7% and the IC50 amounted to 40 nM.

Regarding `CS(=O)(=O)Nc1cc(Cl)cc(NC(=O)c2cc(-c3ccccc3OCc3ccccc3)cs2)c1` [Example 111], the “DHX9 Biochemical Max Inhibition” value was found to be 68.2% and the IC50 stood at 250 nM.

In the case of `CCS(=O)(=O)Nc1cc(F)cc(NC(=O)c2cc(-c3ccccn3)cs2)c1` [Example 113], the “DHX9 Biochemical Max Inhibition” value is reported as 65.9% and the IC50 worked out at 40 nM.

As for `CS(=O)(=O)Nc1cc(F)cc(NC(=O)c2cc(-c3ccccc3O)cs2)c1` [Example 114], the “DHX9 Biochemical Max Inhibition” value turned out to be 66.4% and the IC50 was 43.5 nM.

For `CS(=O)(=O)Nc1cc(Cl)cc(NC(=O)c2cc(-c3cccnc3)cs2)c1` [Example 116, N-(3-chloro-5-(methylsulfonamido)phenyl)-4-(pyridin-3-yl)thiophene-2-carboxamide], the “DHX9 Biochemical Max Inhibition” value amounted to 56.6%.

With `CS(=O)(=O)Nc1cc(Cl)cc(NC(=O)c2cccc(-n3cccn3)c2)c1` [Example 117], the “DHX9 Biochemical Max Inhibition” value amounted to 55.5% and the IC50 stood at 104 nM.

As to `CS(=O)(=O)Nc1cc(Br)cc(NC(=O)c2cccc(-n3cccn3)c2)c1` [Example 118], the “DHX9 Biochemical Max Inhibition” value is 55.8% and the IC50 came out at 45.1 nM.

These data come from patent US20240316047A1, “INHIBITORS OF RNA HELICASE DHX9 AND USES THEREOF” (ACCENT THERAPEUTICS, INC., priority 2022, published 2024).
